Consider two molecules from article PMC10147662, “Structural basis for the ligand promiscuity of the neofunctionalized, carotenoid-binding fasciclin domain protein AstaP” (Communications Biology, 2023).

The target of assay [1] is AstaPo1 (AstaP-orange1), residues 21-223 (Coelastrella astaxanthina, UniProt S6BQ14). In words: differential scanning calorimetry, holoform vs apoform. The class given is binding. The following applies: 20 mM Na-phosphate pH 7.0, 1 °C per min, apo Tm ~60 °C.
The next assay concerns the target T1, AstaPo1^41–190 (Coelastrella astaxanthina, UniProt S6BQ14).
T1 construct: gene astaP; isolated FAS1 domain 41-190, N- and C-terminal regions removed, His6 cut leaving GPHM, E. coli, 16 kDa, monomer
In words: SEC with diode-array absorbance; Trp fluorescence quenching; DSC of holoform. The following applies: holoform from ZEA-synthesizing E. coli; apoform insoluble. The class given is binding.

Sequence of AstaPo1 (AstaP-orange1), residues 21-223 (S6BQ14 entry or part of it): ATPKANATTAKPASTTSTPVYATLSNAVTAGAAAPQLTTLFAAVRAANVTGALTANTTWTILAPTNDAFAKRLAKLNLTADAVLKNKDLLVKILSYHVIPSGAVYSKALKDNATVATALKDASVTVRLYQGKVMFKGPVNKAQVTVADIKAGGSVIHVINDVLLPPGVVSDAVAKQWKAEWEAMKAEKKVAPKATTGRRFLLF
T1 sequence (S6BQ14 entry or part of it): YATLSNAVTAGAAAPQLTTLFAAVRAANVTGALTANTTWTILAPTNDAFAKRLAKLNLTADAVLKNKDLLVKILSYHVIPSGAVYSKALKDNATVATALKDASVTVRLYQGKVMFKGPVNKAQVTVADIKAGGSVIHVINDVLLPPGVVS

Take `CC1=C(/C=C/C(C)=C/C=C/C(C)=C/C=C/C=C(C)/C=C/C=C(C)/C=C/C2=C(C)C(=O)CCC2(C)C)C(C)(C)CCC1=O` [canthaxanthin]: in assay [1] (holoform from CAN-synthesizing E. coli), the Tm increase was more than 15 °C.
For the molecule `CC1=C(/C=C/C(C)=C/C=C/C(C)=C/C=C/C=C(C)/C=C/C=C(C)/C=C/C2=C(C)C[C@@H](O)CC2(C)C)C(C)(C)C[C@H](O)C1` [zeaxanthin], at AstaPo1^41–190, the “SEC with diode-array absorbance; Trp fluorescence quenching; DSC of holoform” value is given as “which confirms the direct carotenoid interaction within this domain”. Also, in assay [1] (holoform from ZEA-synthesizing E. coli), the Tm increase is more than 15 °C.
